Article PMC11618052, “Design, synthesis, and antiproliferative activity of new 1,2,3-triazole/quinazoline-4-one hybrids as dual EGFR/BRAF^V600E inhibitors” (RSC Advances, 2024)
Where “and” joins values, the source holds several entries; their conditions need not be identical. Equal values may be shown once.

Columns and labels:
Caspase-3 = Caspase-3 activation assay in MCF-7; type: cell-based, human; details: for Caspase-3 Fold change: MCF-7, versus untreated control; for Caspase-3 Conc.: MCF-7 cancer cell line
Method: (§1) Compounds 8g and 8h were evaluated as caspase-3, 8 and Bax activators and as down-regulator of the anti-apoptotic protein Bcl2 against the MCF-7 breast cancer cell line.[40] Appendix A ^† contains more details.
Compounds 8g and 8h were evaluated as caspase-3 activators against the MCF-7 breast cancer cell line,[40] with results presented in Table 3. […] The compounds 8g and 8h increased the concentration of caspase-3 protein in the MCF-7 cancer cell line, showing levels that were 11 and 10 times higher than the untreated control and higher than staurosporine. […]
cancer cells, commercially available ELISA kits (Invitrogen) were used according to manufacturer’s instructions.
4.2.1.5. Caspase-3 activation assay
Allow all reagents to reach room temperature before use. Gently mix all liquid reagents prior to use. Determine the number of 8-well strips needed for the assay. Insert these in the frame(s) for current use. Add 100 μl of the Standard Diluent Buffer to the zero standard wells. Well(s) reserved for chromogen blank should be left empty. Add 100 μl of standards and controls or diluted samples to the appropriate microtiter wells. The sample dilution chosen should be optimized for each experimental system. Tap gently on side of plate to mix. Cover wells with plate cover and incubate for 2 hours at room temperature. Thoroughly aspirate or decant solution from wells and discard the liquid, Wash wells 4 times. Pipette 100 μl of Caspase-3 (Active) Detection Antibody solution into each well except the chromogen blank(s). Tap gently on the side of the plate to mix. Cover plate with plate cover and incubate for 1 hour at room temperature. Thoroughly aspirate or decant solution from wells and discard the liquid, Wash wells 4 times. Add 100 μl Anti-Rabbit IgG HRP Working Solution to each well except the chromogen blank(s). Prepare the working dilution as described in Preparing IgG HRP. Cover wells with the plate cover and incubate for 30 minutes at room temperature. Thoroughly aspirate or decant solution from wells and discard the liquid. Wash wells 4 times. Add 100 μl of Stabilized Chromogen to each well. The liquid in the wells will begin to turn blue. Incubate for 30 minutes at room temperature and in the dark. The incubation time for chromogen substrate is often determined by the microtiter plate reader used. Many plate readers have the capacity to record a maximum optical density (O.D.) of 2.0. The O.D. values should be monitored, and the substrate reaction stopped before the O.D. of the positive wells exceeds the limits of the instrument. The O.D. values at 450 nm can only be read after the Stop Solution has been added to each well. If using a reader that records only to 2.0 O.D., stopping the assay after […]
Add 100 μl of Stop Solution to each well. Tap side of plate gently to mix. The solution in the wells should change from blue to yellow. Read the absorbance of each well at 450 nm having blanked the plate reader against a chromogen blank composed of 100 μl each of Stabilized Chromogen and Stop Solution. Read the plate within 2 hours after adding the Stop Solution. Use a curve fitting software to generate the standard curve. A four-parameter algorithm provides the best standard curve fit. Read the concentrations for unknown samples and controls from the standard curve. Multiply value(s) obtained for sample(s) by the appropriate dilution factor to correct for the dilution in step 3. Samples producing signals greater than that of the highest standard should be diluted in Standard Diluent Buffer and reanalyzed. […]
Tubulin.). The absorbance of each microwell was read on a spectro-photometer at 450 nm. A standard curve is prepared from 7human Caspase-8 standard dilutions and human Caspase-8 concentration determined.
(§2) 4.2.1.7. Bax activation assay

Caspase-8 = Caspase-8 level assay in MCF-7; type: cell-based, human; details: for Caspase-8 Fold change: MCF-7, versus untreated control; for Caspase-8 Conc.: MCF-7 cancer cell line
Method: as §1
Compound 8g had the most overexpression of caspase-8 (2.60 ng mL^−1), followed by compound 8h (2.10 ng mL^−1) and staurosporine as a control (1.80 ng mL^−1). […]
monitored, and the substrate reaction stopped before the O.D. of the positive wells exceeds the limits of the instrument. The O.D. values at 450 nm can only be read after the Stop Solution has been added to each well. If using a reader that records only to 2.0 O.D., stopping the assay after […]
Add 100 μl of Stop Solution to each well. Tap side of plate gently to mix. The solution in the wells should change from blue to yellow. Read the absorbance of each well at 450 nm having blanked the plate reader against a chromogen blank composed of 100 μl each of Stabilized Chromogen and Stop Solution. Read the plate within 2 hours after adding the Stop Solution. Use a curve fitting software to generate the standard curve. A four-parameter algorithm provides the best standard curve fit. Read the concentrations for unknown samples and controls from the standard curve. Multiply value(s) obtained for sample(s) by the appropriate dilution factor to correct for the dilution in step 3. Samples producing signals greater than that of the highest standard should be diluted in Standard Diluent Buffer and reanalyzed.
4.2.1.6. Caspase-8 activation assay
Cells were obtained from American Type Culture Collection, cells were grown in RPMI 1640 containing 10% fetal bovine serum at 37°C, stimulated with the compounds to be tested for caspase8, and lysed with Cell Extraction Buffer. This lysate was diluted in Standard Diluent Buffer over the range of the assay and measured for human active caspase-8 content. (Cells are Plated in a density of 1.2 – 1.8 × 10,000 cells/well in a volume of 100µl complete growth medium + 100 ul of the tested compound per well in a 96-well plate for 24 hours before the enzyme assay for Tubulin.). The absorbance of each microwell was read on a spectro-photometer at 450 nm. A standard curve is prepared from 7human Caspase-8 standard dilutions and human Caspase-8 concentration determined.
as §2

Row | Compound | Caspase-3 Fold change (Caspase-3) | Caspase-3 Conc. (Caspase-3) [pg/mL] | Caspase-8 Fold change (Caspase-8) | Caspase-8 Conc. (Caspase-8) | Caspase-8 Conc. (Caspase-8; listed as staurosporine) [ng/mL]
1 | Cc1ccc(-n2cc(CSc3nc4ccccc4c(=O)n3-c3ccc(C)cc3)nn2)cc1 [Compound 8h, 2-(((1-(p-Tolyl)-1H-1,2,3-triazol-4-yl)methyl)thio)-3-(p-tolyl)quinazolin-4(3H)-one] | 10 | 650 ± 5 | 23 | 2.10 ng/mL and 2.10 ± 0.20 ng/mL | –
2 | CN[C@@H]1C[C@H]2O[C@@](C)([C@@H]1OC)n1c3ccccc3c3c4c(c5c6ccccc6n2c5c31)C(=O)NC4 [Staurosporine, reference compound] | 8 | 503 ± 4 | 20 | 1.80 ± 0.10 ng/mL | 1.80
3 | COc1ccc(-n2cc(CSc3nc4ccccc4c(=O)n3-c3ccc(C)cc3)nn2)cc1 [Compound 8g, 2-(((1-(4-Methoxyphenyl)-1H-1,2,3-triazol-4-yl)methyl)thio)-3-(p-tolyl)quinazolin-4(3H)-one] | 11 | 695 ± 5 | 28 | 2.60 ng/mL and 2.60 ± 0.20 ng/mL | –
